In data set [1] the target is T1, human MCH-R1 (Homo sapiens, UniProt Q99705).
T1 construct: expressed in transfected cells
The experiment in a line: MCH-induced cytosolic Ca2+ ion mobilization, antagonist effect. It is filed as cell-based.

Data set [2] is classed as in vitro ADME. The conditions noted are these: for half-life: plasma. As to the method:
Plasmas from 3 species (including commercially available human healthy donors) were adjusted to pH 7.4 if necessary. Incubations were performed at a concentration of 1 µM of the compound at 37 °C (in the presence of a final concentration of DMSO of 2.5% v/v. The incubations were stopped at 0, 15, 30, 60 and 120 min by methanol. Each time point was run in sextuplets. The sampling plates were then centrifuged (2500 rpm, 45 min, 4 °C) and the supernatants pooled. Samples were analyzed for parent compound by LC-MS/MS. The percentage of parent compound remaining at each time point relative to the 0 min sample is then calculated from LC-MS/MS peak area ratios. Then, the stability in plasma was evaluated by incubating human, rat or mouse plasma with the compound(s) as follows: the product (0.1 µM in TRIS buffer pH 7.4 0.1% BSA) was incubated with the plasma at 37 °C. The disappearance of the product was measured at 15, 45, 120, 240 and 300 min by mass spectrometry. Incubations were carried out in a robot Star (Hamilton France, Villebon-sur-Yvette, France). At each sampling time, 50 µL of the reaction medium was removed and diluted with 100 µL of acetonitrile. After centrifugation (20 min at + 4 °C, 4000 rpm), 75 µL of the supernatants was transferred into a 384 well injection plate. Ten microliters were injected onto UPLC coupled with a XEVO TQS mass spectrometer system (Waters, Milford, MA, USA). The unchanged product is quantified using a reference sample (0.1 µM) prepared during the incubation process. A second reference sample at 0.01 µM is prepared in the same conditions to verify the linearity of the detection method. The peak height (or area) is measured to calculate the half-life of the compound.

Results on 1 molecule are retold here after PMC7957705 (Molecules, 2021).

Where two headings read alike, the source gives them in different places. Where a SMILES comes first, the peptide text is derived from it. Bridges are numbered along the chain shown (N, C = ends). Triazole bridges read from a SMILES are 1,4-linked. [ ]: non-standard residue; d: D form. The star is where a group is joined. Benzoyl(4-guanidino) = N=C(N)Nc1ccc(C(=O)*)cc1; Aha = [N-]=[N+]=NCC[C@H](N)C(=O)O; β3hV = CC(C)[C@H](N)CC(=O)O; Nle = CCCC[C@H](N)C(=O)O; Pra = C#CC[C@H](N)C(=O)O

T1 sequence (Q99705 whole entry): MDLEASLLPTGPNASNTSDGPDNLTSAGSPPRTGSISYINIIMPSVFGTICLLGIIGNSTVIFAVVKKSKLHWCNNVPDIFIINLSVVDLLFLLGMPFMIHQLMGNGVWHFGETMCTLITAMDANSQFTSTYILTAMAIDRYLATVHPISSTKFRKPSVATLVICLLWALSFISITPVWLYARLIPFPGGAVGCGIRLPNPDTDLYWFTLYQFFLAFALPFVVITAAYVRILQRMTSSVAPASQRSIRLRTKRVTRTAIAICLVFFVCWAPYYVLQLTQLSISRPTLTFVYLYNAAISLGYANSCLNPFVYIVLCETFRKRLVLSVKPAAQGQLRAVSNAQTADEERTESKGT

Turning to `CCCC[C@@H]1NC(=O)[C@@H](NC(=O)c2ccc(NC(=N)N)cc2)CCn2cc(nn2)C[C@@H](C(=O)N[C@@H](Cc2c[nH]c3ccccc23)C(=O)O)NC(=O)[C@@H]2CCCN2C(=O)[C@H](CCCNC(=N)N)NC(=O)C[C@H](C(C)C)NC(=O)[C@H](CCCNC(=N)N)NC(=O)[C@H](CC(C)C)NC1=O` [GPS18169] ({Benzoyl(4-guanidino)}-[Aha][Nle]LR[β3hV]RP[Pra]W-OH; triazole 1-8), the “antagonistic functionality (in words)” value in data set [1] is recorded as “high picomolar range”. The Ki in data set [1] (antagonism of MCH-induced cytosolic Ca2+ mobilization, read-out: Ki (functionality, antagonism at MCH-R1)) turned out to be 0.028 nM. Moreover, the half-life in data set [2] (human) is at least 5 h; in data set [2] (mouse), 2.92 ± 0.283 h; in data set [2] (rat), at least 5 h. The “initial dose remaining after incubation in mice plasma” value in data set [2] (mouse) is “about 50%”.

The term Ki denotes a measure of affinity in units of concentration, obtained from inhibition or displacement. As usually defined, the half-life is how long it takes for the measured level to halve. Lower therefore signals rapid decline.
